Data published in patent US20140161720A1, “TREATMENT OF ANGIOGENIC- OR VASCULAR-ASSOCIATED DISEASES” (THE GENERAL HOSPITAL CORPORATION, priority 2011, published 2014).
“Also recorded” adds a separate entry of the source.

Key:
MDA-MB-231 cells = test: Cell spreading and F-actin visualization on fibronectin (phalloidin); format: cell-based, human; conditions: 5 μM, two hours
Source text: FIGS. 1A to 1E show a schematics of an exemplary drug screen for antivascular agent described herein, e.g., dehydro-alpha-lapachone (DAL) and effects of DAL on cell adhesion properties. […] Of the 50,000 compounds screened, 86 compounds were selected to test in the secondary assays. Only compounds that made MDA-MB-231 cells more rounded, with less spreading than control cells, and interfered with actin regulation were selected for further study. All these selected small molecules were further passed through a number of filtering toxicity assays to eliminate toxic compounds. […] The non-toxic compounds were then analyzed in a zebrafish model. […]
A cell-based readout system was used for compound selection. […] As a further test of toxicity, DAL was injected intraperitoneally at 100 mg/kg in SCID mice and signs of toxicity including cachexia, ruffled fur, diarrhea, anorexia, skin ulceration, and toxic death were monitored.
A screening strategy was developed to identify potential agents that target adhesion of endothelial cells or cancer cells to their substrate. […] The initial screening step quantified the number of cells remaining attached to their wells following incubation with each compound and subsequent washing steps. […] The agents that affect cell adhesion can be monitored through remodeling of actin filaments. […] Changes in actin assembly and cell shape after treatment with 12 compounds were determined. […]

[1] = system: orthotopic 4T1 mammary tumors; test: Vascular parameters in tumors by intravital multiphoton microscopy; format: in vivo, female SCID mice; conditions: 37.5 mg/kg daily i.p.
Experimental: Female SCID mice bearing orthotopic GFP-labeled 3 mm 4T1 mammary tumors were treated with five daily i.p. injections (day 0-day 4) of 37.5 mg/kg DAL or saline. Implanted mammary fat pad windows (35) were surgically implanted to facilitate intravital imaging through multiphoton microscopy with a custom-built multiphoton microscope with a 20×0.95NA objective (Olympus), and mice were imaged by fluorescent angiography following retro-orbital injection of 60 uL of 10 mg/mL TAMRA-dextran (2MDa molecular mass). Images were collected on day 0, day 2, and day 4, with the first images collected immediately before the first treatment. The 2×2 grids were imaged in the sample plane (630-μm) field of view at each position) tissue from 0-200 μm depth. To measure vascular parameters in the mice over the course of treatment, a custom 3D vascular tracing and analysis software package based on MATLAB (The Mathworks) was applied to the images.
To study these effects quantitatively, fluorescent angiographies were conducted in female SCID mice bearing orthotopic 4T1 mammary tumors in mammary fat pad windows via intravital multiphoton microscopy (FIG. 3A) (22-24). These mice were treated with 37.5 mg/kg DAL or saline daily for 5 days by i.p. injection. It was determined that DAL treatment decreases tumor vascular volume fractions—a measure of vascular density—compared with saline treatment (FIG. 3B, p<0.002, day 4).

Which “cell spreading, size and shape on fibronectin-coated plates” value (MDA-MB-231 cells) does the source give for `CC1(C)C=CC2=C(O1)C(=O)c1ccccc1C2=O` [DAL, dehydro-alpha-lapachone] here?
Its value is “significantly smaller than control cells and had a rounded shape”.

What about the F-actin distribution (MDA-MB-231 cells; phalloidin) of the same compound?
Its F-actin distribution is “actin was accumulated close to the membrane”.

What about the “total tumor vascular length (normalized to tumor volume)” value ([1]; day 2 and day 4, versus saline) of the same compound?
Its value is “lower”.

And the “tumor vascular volume fraction” value ([1]; day 4, versus saline)?
Its value is “decreases; also recorded: lower”.

What about the “mean tumor vascular diameter” value ([1]; versus saline) of the same compound?
Its value is “remains the same; also recorded: no significant difference”.
